Data from BindingDB's records for doi:10.1021/cc9001026 (Bristol-Myers Squibb, 2010).
“And” between values parts separate entries of the source, which are not always exact repeats. Identical values can stand only once.

Target: Gag-Pol polyprotein (Human immunodeficiency virus type 1 group M subtype B (isolate HXB2), UniProt P04585)
Assay: Inhibition Assay
Source text: Inhibition assay using HIV-1 integrase.

SMILES | IC50
O=Cc1ccccc1C(F)(F)F [Integrase inhibitor, R2{5}] | 7.86 µM
O=C(NCc1ccc(Cl)c(Cl)c1)C1C(=O)C(=O)N(CC2CC2)C1c1cccc2c1OCO2 (centres undefined) [Integrase inhibitor, 2{1,1,1}] | 0.05 µM and 0.039 µM
CCOCCCN [Integrase inhibitor, R3{4}] | 2.11 µM
NCC1CC1 [Integrase inhibitor, R3{1}] | 3.64 µM
CCOCCCN1C(=O)C(=O)C(C(=O)NCc2ccc(Cl)c(Cl)c2)C1c1ccccc1Oc1ccccc1 (centres undefined) [Integrase inhibitor, 2{1,4,4}] | 0.09 µM and 0.08 µM
CN [Integrase inhibitor, R3{3}] | 2.7 µM
O=Cc1ccccc1OCC(=O)O [Integrase inhibitor, R2{3}] | 2.03 µM
CCOc1ccccc1C=O [Integrase inhibitor, R2{2}] | 1.02 µM
CCOc1ccccc1C1C(C(=O)NCc2ccc(Cl)c(Cl)c2)C(=O)C(=O)N1CCCCC(NC(C)=O)C(=O)O (centres undefined) [Integrase inhibitor, 2{1,2,2}] | 0.057 µM and 0.026 µM
COc1ccc(CNC(=O)C2C(=O)C(=O)N(CC3CC3)C2c2ccccc2C(F)(F)F)cc1 (centres undefined) [Integrase inhibitor, 2{3,5,1}] | 12 µM and 10.3 µM
NCc1ccc(Cl)c(Cl)c1 [Integrase inhibitor, R1{1}] | 1.34 µM
CC(=O)NC(CCCCN1C(=O)C(=O)C(C(=O)NCc2ccc(Cl)c(Cl)c2)C1c1cccc2c1OCO2)C(=O)O (centres undefined) [Integrase inhibitor, 2{1,1,2}] | 0.067 µM and 0.029 µM
NCc1ccc(F)cc1 [Integrase inhibitor, R1{2}] | 4.05 µM
CC(=O)N[C@H](CCCCN)C(=O)O [Integrase inhibitor, R3{2}] | 1.84 µM
O=Cc1cccc2c1OCO2 [Integrase inhibitor, R2{1}] | 3.05 µM
O=Cc1ccccc1OCc1ccccc1 [Integrase inhibitor, R2{4}] | 1.75 µM
NCc1cc(Cl)cc(Cl)c1 [Integrase inhibitor, R1{4}] | 2.47 µM
CCOCCN [Integrase inhibitor, R3{5}] | 4.13 µM
COc1ccc(CN)cc1 | 3.92 µM
